The source of these data is ChEMBL document CHEMBL1142916, “Synthesis and biological activity of 2,5-diaryl-3-methylpyrimido[4,5-c]quinolin-1(2H)-one derivatives” (Bioorg Med Chem, 2007).

Molecules are shown by their SMILES. Activity calls are given as the source filed them. The calls are words filed in the database; no cut-off is given here.

The test system of test [1] is PC-3. In words: Cytotoxicity against human PC3 cells after 3 days by MTT assay. Type of test: functional, cell-based. To be noted: PC-3, 72 h.
Test [2] is filed under the species Bos taurus. Put plainly: Inhibition of bovine brain tubulin polymerization at 40 uM absence of microtubule associated proteins.
The species entered for test [3] is Bos taurus. In words: Inhibition of bovine brain tubulin polymerization at 40 uM in presence of microtubule associated proteins.
The species named for test [4] is Bos taurus. Put plainly: Inhibition of bovine brain tubulin polymerization at 27 uM in presence of microtubule associated proteins.
For test [5], the species on record is Bos taurus. Put plainly: Inhibition of bovine brain tubulin polymerization at 27 uM in absence of microtubule associated proteins.

In test [1], `Cc1nc2c(-c3ccc(Br)cc3)nc3ccccc3c2c(=O)n1-c1ccc(Cl)cc1` came in with an IC50 of 1.9 µM.
The same measure, in the same setting: to `Cc1nc2c(-c3ccc(Br)cc3)nc3ccccc3c2c(=O)n1-c1ccccc1Br` belongs greater than 20 µM; to `Cc1nc2c(-c3ccc(Cl)cc3)nc3ccccc3c2c(=O)n1-c1ccccc1`, 3.2 µM.
Turning to `Cc1nc2c(-c3ccc(Cl)cc3)nc3ccccc3c2c(=O)n1-c1ccc(Br)cc1`, the half-inhibitory concentration (IC50) in test [1] is 2.5 µM.
Same read-out and setting: to `Cc1nc2c(-c3ccc(Cl)cc3)nc3ccccc3c2c(=O)n1-c1ccc(F)cc1` belongs 4 µM; to `Cc1ccccc1-n1c(C)nc2c(-c3ccc(Cl)cc3)nc3ccccc3c2c1=O`, greater than 38 µM.
The same measure, in the same setting: as for `COc1ccccc1-n1c(C)nc2c(-c3ccc(Cl)cc3)nc3ccccc3c2c1=O`, the figure is 10.5 µM.
For the compound `Cc1nc2c(-c3ccc(Br)cc3)nc3ccccc3c2c(=O)n1-c1ccccc1`, the IC50 in test [1] was found to be 2.2 µM.
On the same count and under the same terms, as for `Cc1ccccc1-n1c(C)nc2c(-c3ccc(Br)cc3)nc3ccccc3c2c1=O`, the figure is greater than 30 µM; as for `Cc1nc2c(-c3ccc(Br)cc3)nc3ccccc3c2c(=O)n1-c1cccc(Cl)c1`, greater than 25 µM.
In turn, `COc1ccc(-n2c(C)nc3c(-c4ccc(Br)cc4)nc4ccccc4c3c2=O)cc1` showed an IC50 in test [1] of 2.5 µM.
The same measure, in the same setting: to `COc1ccccc1-n1c(C)nc2c(-c3ccc(Br)cc3)nc3ccccc3c2c1=O` belongs 6.7 µM.
Still for that read-out and setting: as for `Cc1nc2c(-c3ccc(Cl)cc3)nc3ccccc3c2c(=O)n1-c1cccc(Cl)c1`, the figure is greater than 26 µM.
On to `COc1ccc(-n2c(C)nc3c(-c4ccc(Cl)cc4)nc4ccccc4c3c2=O)cc1`, for which the result in test [2] and in test [3] was inactive. Further, in test [1], the IC50 was found to be 1.6 µM.
The compound `Cc1nc2c(-c3ccc(Br)cc3)nc3ccccc3c2c(=O)n1-c1ccc(Br)cc1` showed an IC50 in test [1] of 3.3 µM.
Same read-out and setting: as for `Cc1nc2c(-c3ccc(Cl)cc3)nc3ccccc3c2c(=O)n1-c1ccccc1Br`, the figure is greater than 42 µM.
As to `COc1cc2c(c(OC)c1OC)-c1ccc(OC)c(=O)cc1[C@@H](NC(C)=O)CC2` [COLCHICINE], in test [1], the IC50 was 0.018 µM.
Still for that read-out and setting: to `Cc1ccc(-n2c(C)nc3c(-c4ccc(Br)cc4)nc4ccccc4c3c2=O)cc1` belongs greater than 21.3 µM.
Turning to `Cc1nc2c(-c3ccc(Br)cc3)nc3ccccc3c2c(=O)n1-c1cccc(Br)c1`, the IC50 in test [1] is greater than 10 µM.
In test [1], `Cc1nc2c(-c3ccc(Cl)cc3)nc3ccccc3c2c(=O)n1-c1ccccc1Cl` came in with an IC50 of 2 µM.
The same measure, in the same setting: as for `Cc1nc2c(-c3ccc(Br)cc3)nc3ccccc3c2c(=O)n1-c1ccccc1Cl`, the figure is greater than 28 µM.
For `Cc1nc2c(-c3ccc(Cl)cc3)nc3ccccc3c2c(=O)n1-c1cccc(Br)c1`, the outcome in test [4] and in test [5] was inactive. 1.4 µM corresponded to half-maximal inhibition in test [1] (IC50).
The compound `Cc1ccc(-n2c(C)nc3c(-c4ccc(Cl)cc4)nc4ccccc4c3c2=O)cc1` returned an IC50 in test [1] greater than 32 µM.
`Cc1nc2c(-c3ccc(Cl)cc3)nc3ccccc3c2c(=O)n1-c1ccc(Cl)cc1`: in test [1], the IC50 was greater than 28 µM.
The compound `Cc1nc2c(-c3ccc(Br)cc3)nc3ccccc3c2c(=O)n1-c1ccc(F)cc1` yielded an IC50 in test [1] of 5.5 µM.
